# Measured values published in ChEMBL document CHEMBL1158688, “Synthesis and characterization of the 7-(4-aminomethyl-1H-1,2,3-triazol-1-yl) analogue of kabiramide C” (J Nat Prod, 2005).
# Active and inactive are the calls of the source. No cut-off for these calls is given here.
# Organism: Oryctolagus cuniculus
# Assay: Binding affinity to rabbit Prodan-labeled G-actin
row,Activity,SMILES
1,Active,CO[C@H]([C@H](C)/C=C/N(C)C=O)[C@@H](C)C(=O)CC[C@H](C)[C@@H](C[C@@H]1OC(=O)CC(OC(N)=O)C[C@H](C)C[C@@H](n2cc(CNC(=O)OCC3c4ccccc4-c4ccccc43)nn2)[C@H](C)[C@@H](OC)c2coc(n2)-c2coc(n2)-c2coc(n2)/C=C/C[C@H](OC)[C@H]1C)OC (stereo partly drawn)
2,Active,CO[C@H]([C@H](C)/C=C/N(C)C=O)[C@@H](C)C(=O)CC[C@H](C)[C@@H](C[C@@H]1OC(=O)CC(OC(N)=O)C[C@H](C)C[C@@H](N=[N+]=[N-])[C@H](C)[C@@H](OC)c2coc(n2)-c2coc(n2)-c2coc(n2)/C=C/C[C@H](OC)[C@H]1C)OC (stereo partly drawn)
3,Active,CO[C@H]([C@H](C)/C=C/N(C)C=O)[C@@H](C)C(=O)CC[C@H](C)[C@@H](C[C@@H]1OC(=O)CC(OC(N)=O)C[C@H](C)C[C@@H](n2cc(CN)nn2)[C@H](C)[C@@H](OC)c2coc(n2)-c2coc(n2)-c2coc(n2)/C=C/C[C@H](OC)[C@H]1C)OC (stereo partly drawn)
